Experimental data taken from ChEMBL document CHEMBL5620353, “Novel antifungal triazoles with alkynyl-methoxyl side chains: Design, synthesis, and biological activity evaluation” (Eur J Med Chem, 2023).
Converted amounts (≈) assume the structure as drawn. The source made the active and inactive calls. The calls are words filed in the database; no cut-off is given here.

Assays:
Candida albicans [1] = test: Antifungal activity against Candida albicans SC5314 assessed as inhibition of fungal growth incubated for 48 hrs by microbroth dilution method; assay type: functional
Candida albicans [2] = test: Antifungal activity against Candida albicans 10231 assessed as inhibition of fungal growth incubated for 48 hrs by microbroth dilution method; assay type: functional
Nakaseomyces glabratus [3] = test: Antifungal activity against Candida glabrata 537 assessed as inhibition of fungal growth incubated for 48 hrs by microbroth dilution method; assay type: functional
Candida parapsilosis [4] = test: Antifungal activity against Candida parapsilosis 22019 assessed as inhibition of fungal growth incubated for 48 hrs by microbroth dilution method; assay type: functional; settings: Lodderomyces parapsilosis
Pichia kudriavzevii = test: Antifungal activity against Candida krusei 4996 assessed as inhibition of fungal growth incubated for 48 hrs by microbroth dilution method; assay type: functional
Candida tropicalis = test: Antifungal activity against Candida tropicalis 8915 assessed as inhibition of fungal growth incubated for 48 hrs by microbroth dilution method; assay type: functional
Cryptococcus neoformans [5] = test: Antifungal activity against Cryptococcus neoformans 32,609 assessed as inhibition of fungal growth incubated for 72 hrs by microbroth dilution method; assay type: functional
Aspergillus fumigatus = test: Antifungal activity against Aspergillus fumigatus 7544 assessed as inhibition of fungal growth incubated for 72 hrs by microbroth dilution method; assay type: functional
Candida albicans [6] = test: Antifungal activity against fluconazole-resistant Candida albicans 901 assessed as inhibition of fungal growth incubated for 48 hrs by microbroth dilution method; assay type: functional
Candida albicans [7] = test: Antifungal activity against fluconazole-resistant Candida albicans 904 assessed as inhibition of fungal growth incubated for 48 hrs by microbroth dilution method; assay type: functional
[Candida] auris [8] = Antifungal activity against fluconazole-resistant Candida auris 891 assessed as inhibition of fungal growth incubated for 48 hrs by microbroth dilution method; assay type: functional; settings: Candidozyma auris
[Candida] auris [9] = Antifungal activity against fluconazole-resistant Candida auris 918 assessed as inhibition of fungal growth incubated for 48 hrs by microbroth dilution method; assay type: functional; settings: Candidozyma auris
[Candida] auris [10] = Antifungal activity against fluconazole-resistant Candida auris 919 assessed as inhibition of fungal growth incubated for 48 hrs by microbroth dilution method; assay type: functional; settings: Candidozyma auris
Candida albicans [11] = test: Antifungal activity against Candida albicans SC5314 assessed as inhibition of fungal growth at 0.5 ug/ml incubated for 48 hrs by spot assay; assay type: functional, organism-based; settings: dose 0.5 µg/ml
Candida albicans [12] = test: Antifungal activity against Candida albicans 10231 assessed as inhibition of fungal growth at 0.5 ug/ml incubated for 48 hrs by spot assay; assay type: functional, organism-based; settings: dose 0.5 µg/ml
Candida albicans [13] = test: Antifungal activity against fluconazole-resistant Candida albicans 904 assessed as inhibition of fungal growth at 0.5 ug/ml incubated for 48 hrs by spot assay; assay type: functional, organism-based; settings: dose 0.5 µg/ml
Candida parapsilosis [14] = test: Antifungal activity against Candida parapsilosis 22019 assessed as inhibition of fungal growth at 0.5 ug/ml incubated for 48 hrs by spot assay; assay type: functional, organism-based; settings: dose 0.5 µg/ml
Nakaseomyces glabratus [15] = test: Antifungal activity against Candida glabrata 537 assessed as inhibition of fungal growth at 0.5 ug/ml incubated for 48 hrs by spot assay; assay type: functional, organism-based; settings: dose 0.5 µg/ml
Cryptococcus neoformans [16] = test: Antifungal activity against Cryptococcus neoformans 32,609 assessed as inhibition of fungal growth at 0.5 ug/ml incubated for 48 hrs by spot assay; assay type: functional, organism-based; settings: dose 0.5 µg/ml
[Candida] auris [17] = Antifungal activity against Candida auris 891 assessed as inhibition of fungal growth at 0.5 ug/ml incubated for 48 hrs by spot assay; assay type: functional, organism-based; settings: Candidozyma auris, dose 0.5 µg/ml
Candida albicans [18] = test: Antifungal activity against Candida albicans SC5314 assessed as reduction in fungal growth and viability at 2 ug/ml incubated for 48 hrs by spot assay; assay type: functional, organism-based; settings: dose 2.0 µg/ml
Candida albicans [19] = test: Antifungal activity against Candida albicans 904 assessed as reduction in fungal growth and viability at 2 ug/ml incubated for 48 hrs by spot assay; assay type: functional, organism-based; settings: dose 2.0 µg/ml
Candida albicans [20] = test: Antifungal activity against Candida albicans SC5314 assessed as inhibition of fungal growth at 4 ug/ml measured after 12 hrs by optical density based method; assay type: functional, organism-based; settings: dose 4.0 µg/ml
Candida albicans [21] = test: Inhibition of biofilm formation in Candida albicans SC5314 at 64 ug/ml incubated for 24 hrs by XTT reduction assay relative to control; assay type: functional
Candida albicans [22] = test: Antibiofilm activity against Candida albicans SC5314 preformed biofilms at 4 ug/ml incubated for 24 hrs by XTT reduction assay relative to control; assay type: functional; set-up: scale not given: the % may be the effect or the level left; settings: dose 4 µg/ml
Candida albicans [23] = test: Antibiofilm activity against Candida albicans SC5314 preformed biofilms at 16 ug/ml incubated for 24 hrs by XTT reduction assay relative to control; assay type: functional; set-up: scale not given: the % may be the effect or the level left; settings: dose 16 µg/ml
Candida albicans [24] = test: Antibiofilm activity against Candida albicans SC5314 preformed biofilms at 64 ug/ml incubated for 24 hrs by XTT reduction assay relative to control; assay type: functional; set-up: scale not given: the % may be the effect or the level left; settings: dose 64 µg/ml
Candida albicans [25] = test: Antifungal activity against Candida albicans assessed as reduction in hyphal length at 16 ug/ml; assay type: functional, organism-based; settings: dose 16.0 µg/ml
Candida albicans [26] = test: Antifungal activity against Candida albicans assessed as increase in pseudohyphae at 16 ug/ml; assay type: functional, organism-based; settings: dose 16.0 µg/ml
[27] = target: Lanosterol 14-alpha demethylase (Candida albicans (strain SC5314 / ATCC MYA-2876) (Yeast), UniProt P10613); test: Inhibition of Lanosterol 14-alpha demethylase in Candida albicans SC5314 assessed as reduction in ergosterol level at 8 ug/ml incubated for 8 hrs by GC-MS analysis relative to control; settings: at 8 µg/mL
[28] = Cytotoxicity against HUVEC cells assessed as cell survival at 128 ug/ml incubated for 24 hrs by CCK-8 assay relative to control; assay type: toxicity, cell-based; settings: human, at 128 µg/mL, read-out: Survival
[29] = Selectivity index, ratio of IC50 for HUVEC cells to MIC for Candida albicans SC5314; assay type: toxicity; settings: human, HUVEC cells versus Candida albicans SC5314; read-out: Selectivity Index
[30] = Selectivity index, ratio of IC50 for HUVEC cells to MIC for Candida glabrata 537; assay type: toxicity; settings: human, HUVEC cells versus Candida glabrata 537; read-out: Selectivity Index
Candida albicans [31] = test: Antifungal activity against Candida albicans SC5314 infected in Galleria mellonella larvae assessed as delay in time of larval death at 8 mg/kg measured after 10 days post inoculation; assay type: functional, organism-based; settings: time 10.0 day
Candida albicans [32] = test: Antifungal activity against Candida albicans SC5314 infected in Galleria mellonella larvae assessed as median survival time at 8 mg/kg measured after 10 days post inoculation; assay type: functional; settings: time 10 day
Candida albicans [33] = test: Antifungal activity against Candida albicans SC5314 infected in Galleria mellonella larvae assessed as larval survival rate at 8 mg/kg measured after 10 days post inoculation relative to control; assay type: functional; settings: SC5314, 240 h, time 10 day
Candida albicans [34] = test: Antifungal activity against Candida albicans SC5314 infected in Galleria mellonella larvae assessed as protection against fungal infection at 2 mg/kg measured after 10 days post inoculation; assay type: functional, organism-based; settings: time 10.0 day
Saccharomyces cerevisiae [35] = test: Antifungal activity against recombinant Saccharomyces cerevisiae Y525 overexpressing CaMdr1 assessed as inhibition of fungal growth incubated for 48 hrs by microbroth dilution method; assay type: functional
Saccharomyces cerevisiae [36] = test: Antifungal activity against recombinant Saccharomyces cerevisiae Y570 overexpressing CaCdr1 assessed as inhibition of fungal growth incubated for 48 hrs by microbroth dilution method; assay type: functional
Saccharomyces cerevisiae [37] = test: Antifungal activity against recombinant Saccharomyces cerevisiae Y2411 overexpressing ScErg11 assessed as inhibition of fungal growth incubated for 48 hrs by microbroth dilution method; assay type: functional
Saccharomyces cerevisiae [38] = test: Antifungal activity against recombinant Saccharomyces cerevisiae Y2300 overexpressing ScErg11 assessed as inhibition of fungal growth incubated for 48 hrs by microbroth dilution method; assay type: functional
Saccharomyces cerevisiae [39] = test: Antifungal activity against recombinant Saccharomyces cerevisiae Y2301 overexpressing ScErg11 Y140F assessed as inhibition of fungal growth incubated for 48 hrs by microbroth dilution method; assay type: functional
Saccharomyces cerevisiae [40] = test: Antifungal activity against recombinant Saccharomyces cerevisiae Y2513 overexpressing ScErg11 Y140H assessed as inhibition of fungal growth incubated for 48 hrs by microbroth dilution method; assay type: functional
Saccharomyces cerevisiae [41] = test: Antifungal activity against recombinant Saccharomyces cerevisiae Y2374 overexpressing CgErg11 assessed as inhibition of fungal growth incubated for 48 hrs by microbroth dilution method; assay type: functional
Saccharomyces cerevisiae [42] = test: Antifungal activity against recombinant Saccharomyces cerevisiae Y2462 overexpressing ScErg11 ScNcp1 assessed as inhibition of fungal growth incubated for 48 hrs by microbroth dilution method; assay type: functional
Saccharomyces cerevisiae [43] = test: Antifungal activity against recombinant Saccharomyces cerevisiae Y2459 overexpressing CaErg11 CaCpr assessed as inhibition of fungal growth incubated for 48 hrs by microbroth dilution method; assay type: functional
Saccharomyces cerevisiae [44] = test: Antifungal activity against recombinant Saccharomyces cerevisiae Y2721 overexpressing CpErg11 CpCpr assessed as inhibition of fungal growth incubated for 48 hrs by microbroth dilution method; assay type: functional
Saccharomyces cerevisiae [45] = test: Antifungal activity against recombinant Saccharomyces cerevisiae Y2716 overexpressing CpErg11 Y132F CpCpr assessed as inhibition of fungal growth incubated for 48 hrs by microbroth dilution method; assay type: functional
Saccharomyces cerevisiae [46] = test: Resistance index, ratio of MIC for recombinant Saccharomyces cerevisiae Y525 overexpressing CaMdr1 to MIC for recombinant Saccharomyces cerevisiae Y2411 overexpressing ScErg11; assay type: functional

Lanosterol 14-alpha demethylase, sequence (P10613 whole entry): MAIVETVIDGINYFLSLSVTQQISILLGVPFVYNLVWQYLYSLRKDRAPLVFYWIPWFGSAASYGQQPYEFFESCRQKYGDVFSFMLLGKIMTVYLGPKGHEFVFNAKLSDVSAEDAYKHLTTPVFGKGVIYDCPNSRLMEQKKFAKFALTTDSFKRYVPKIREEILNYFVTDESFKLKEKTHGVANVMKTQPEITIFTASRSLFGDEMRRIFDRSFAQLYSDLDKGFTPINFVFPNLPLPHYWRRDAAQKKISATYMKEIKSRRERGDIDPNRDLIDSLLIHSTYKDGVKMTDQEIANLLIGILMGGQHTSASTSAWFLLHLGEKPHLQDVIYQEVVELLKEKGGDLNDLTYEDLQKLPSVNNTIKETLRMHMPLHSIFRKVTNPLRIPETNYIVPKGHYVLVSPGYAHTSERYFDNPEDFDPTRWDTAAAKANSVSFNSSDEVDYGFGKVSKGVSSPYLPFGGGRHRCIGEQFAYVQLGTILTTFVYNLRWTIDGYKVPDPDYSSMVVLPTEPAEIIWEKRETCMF

OC(Cn1cncn1)(Cn1cncn1)c1ccc(F)cc1F [FLUCONAZOLE]
MIC (Candida albicans [1]): 0.5 µg/mL (≈ 1.63 µM)
MIC (Candida albicans [2]): > 64 µg/mL
MIC (Nakaseomyces glabratus [3]): 1 µg/mL (≈ 3.27 µM)
MIC (Candida parapsilosis [4]): 4 µg/mL (≈ 13.1 µM)
MIC (Pichia kudriavzevii): 64 µg/mL (≈ 209 µM)
MIC (Candida tropicalis): > 64 µg/mL
MIC (Cryptococcus neoformans [5]): 2 µg/mL (≈ 6.53 µM)
MIC (Aspergillus fumigatus): > 64 µg/mL
MIC (Candida albicans [6]): > 256 µg/mL
MIC (Candida albicans [7]): > 256 µg/mL
MIC ([Candida] auris [8]): > 256 µg/mL
MIC ([Candida] auris [9]): > 256 µg/mL
MIC ([Candida] auris [10]): > 256 µg/mL
Activity (Candida albicans [11]): inactive
Activity (Candida albicans [12]): inactive
Activity (Candida albicans [13]): inactive
Activity (Candida parapsilosis [14]): inactive
Activity (Nakaseomyces glabratus [15]): inactive
Activity (Cryptococcus neoformans [16]): inactive
Activity ([Candida] auris [17]): inactive
Activity (Candida albicans [18]): Active
Activity (Candida albicans [19]): Active
Activity (Candida albicans [20]): Active
inhibition at 64 µg/mL (Candida albicans [21]): 26.1%
Activity (Candida albicans [22]): 31.38%
Activity (Candida albicans [23]): 34.47%
Activity (Candida albicans [24]): 33.39%
Activity (Candida albicans [25]): Active
Activity (Candida albicans [26]): Active
inhibition (INH) [27]: ~ 100%
viability at 24 h, 128 ug/ml [28]: 43.7%
selectivity ratio [29]: 100
selectivity ratio [30]: 50
Activity (Candida albicans [31]): Active
MST (Candida albicans [32]): 10 days
survival at 8 mg/kg (Candida albicans [33]): 46.7%
Activity (Candida albicans [34]): Active
MIC (Saccharomyces cerevisiae [35]): 32 µg/mL
MIC (Saccharomyces cerevisiae [36]): > 64 µg/mL
MIC (Saccharomyces cerevisiae [37]): 1 µg/mL
MIC (Saccharomyces cerevisiae [38]): 4 µg/mL
MIC (Saccharomyces cerevisiae [39]): 8 µg/mL
MIC (Saccharomyces cerevisiae [40]): 8 µg/mL
MIC (Saccharomyces cerevisiae [41]): 4 µg/mL
MIC (Saccharomyces cerevisiae [42]): 8 µg/mL
MIC (Saccharomyces cerevisiae [43]): 2 µg/mL
MIC (Saccharomyces cerevisiae [44]): 4 µg/mL
MIC (Saccharomyces cerevisiae [45]): 32 µg/mL
Ratio (Saccharomyces cerevisiae [46]): 32
